Results taken from patent publication US20120165339A1, “CYCLOPROPANE DERIVATIVES” (EISAI R&D MANAGEMENT CO., LTD., priority 2010, published 2012).
Like-named read-outs stand apart in the source and are kept apart here.

Experiments:
[1] = biological target: T1, OX1 (Homo sapiens, UniProt O43613); assay: Antagonism PLAP reporter assay, HEK-293 cells expressing human OX1; format: cell-based; parameters: expressed in transfected cells; host or cells: HEK-293 cell line, expression vector pBabeCLIH; settings: HEK-293, 1 nM human OX-A; IC50 converted to Ki by Cheng-Prusoff equation
T1 sequence (O43613 1-425): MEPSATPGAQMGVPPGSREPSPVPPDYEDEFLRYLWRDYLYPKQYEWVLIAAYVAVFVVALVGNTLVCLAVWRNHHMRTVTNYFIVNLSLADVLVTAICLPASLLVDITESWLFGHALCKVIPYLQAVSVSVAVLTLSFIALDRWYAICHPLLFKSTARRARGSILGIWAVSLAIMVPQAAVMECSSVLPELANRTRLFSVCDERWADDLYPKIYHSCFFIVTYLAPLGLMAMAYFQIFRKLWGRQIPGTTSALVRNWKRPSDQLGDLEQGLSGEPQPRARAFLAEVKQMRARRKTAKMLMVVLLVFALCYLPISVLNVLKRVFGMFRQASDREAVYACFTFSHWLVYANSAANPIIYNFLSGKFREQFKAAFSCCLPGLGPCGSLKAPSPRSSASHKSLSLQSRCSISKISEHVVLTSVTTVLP
Experimental: (§1) The antagonistic function of the compound of the present invention to prevent the activation of OX2 and OX1 by orexin-A (OX-A), which is a natural peptide agonist, was measured using a cell-based reporter assay. A HEK-293 cell line expressing genetically recombinant human OX2 (accession No. NM_001526.3) or a HEK-293 cell line expressing genetically recombinant human OX1 (accession No. NM_001525.2), which had pBabeCLIH as expression vector, was used. The cells were plated at a density of 10,000 cells/well onto a non-coated 96-well plate in Dulbecco's modified Eagle medium (Sigma Cat No. D6046: 10% v/v heat-inactivated fetal bovine serum was contained). The cells were cultured at 37° C. overnight, so that they could adhere to the plate. On the following day, cells were incubated with a compound of the present invention dissolved in Dulbecco's modified Eagle medium (Sigma Cat No. A8806: 0.1% w/v bovine serum albumin was contained), and added to the cell plate to reach a final concentration of 0.1% dimethyl sulfoxide.
(§2) The thus obtained mixture was incubated at room temperature for 1 hour. Thereafter, human OX-A and forskolin were dissolved in the same medium as described above, which contained fetal bovine serum albumin, and the medium was then added to the cells, resulting in a final concentration of 300 nM forskolin. Subsequently, the cells were cultured at 37° C. for approximately 18 to 24 hours. During the culture, as a result of activation of the orexin receptor and subsequent dose-dependent increase in intracellular calcium concentration, a reporter enzyme, placental alkaline phosphatase (PLAP), was expressed under the control of a CRE x4+VIP promoter in a pBabeCLcre4vPdNN vector and secreted into the culture medium supernatant. On the following day, reporter enzyme activity was detected by mixing 5 ul of the culture medium supernatant with 20 ul of detection buffer (containing 1.34 g/L sodium bicarbonate, 1.27 g/L sodium carbonate and 0.2 g/L magnesium sulfate heptahydrate in water) and 25 ul of Lumi-Phos530 reagent (Wako Pure Chemical Industries Ltd.), followed by incubating the obtained mixture light-protected at room temperature for 2 hours, before performing luminescence measurement (ARVO Reader, PerkinElmer). The Kd value of human OX-A with respect to each receptor was measured by titration from 0 to 300 nM. Then, the IC50 value of the compound of the present invention with respect to the activity of 1 nM human OX-A was converted into a Ki value (nM) using the Cheng-Prusoff equation.

[2] = biological target: T2, OX2 (Homo sapiens, UniProt O43614); assay: Orexin-receptor binding ability, [125I]-OX-A, CHO cell membranes expressing OX2; parameters: expressed in transfected cells; host or cells: CHO cells (membrane preparation)
T2 sequence (O43614 1-444): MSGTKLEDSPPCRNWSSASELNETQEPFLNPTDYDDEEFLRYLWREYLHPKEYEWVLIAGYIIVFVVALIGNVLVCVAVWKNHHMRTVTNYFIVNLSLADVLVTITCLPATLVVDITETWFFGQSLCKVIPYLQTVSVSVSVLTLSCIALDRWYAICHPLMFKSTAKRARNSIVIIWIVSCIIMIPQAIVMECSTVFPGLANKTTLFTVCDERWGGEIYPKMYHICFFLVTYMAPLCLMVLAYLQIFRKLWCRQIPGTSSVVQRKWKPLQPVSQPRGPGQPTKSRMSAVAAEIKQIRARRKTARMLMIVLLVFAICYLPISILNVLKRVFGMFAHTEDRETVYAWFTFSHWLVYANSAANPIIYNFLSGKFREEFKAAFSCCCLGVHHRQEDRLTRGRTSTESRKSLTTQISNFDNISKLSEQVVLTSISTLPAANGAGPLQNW
Experimental: (§3) The assay was carried out using a 96-well Wheat Germ Agglutinin Flash Plate (PerkinElmer). The volume in a single assay well was 100 ul, and the composition of the reaction solution was as follows:
(§4) 25 mM HEPES (pH 7.5), 1 mM CaCl2, 4.5 mM MgCl2, 0.5% BSA (bovine serum albumin), 0.1% sodium azide, 0.05% Tween-20, and 0.2% DMSO.
Cell membranes were prepared from recombinant CHO cells that expressed OX2 or OX1. The cell membranes were used in an amount of 5 μg protein/assay. Test compound in various concentrations, and 0.2 nM [^125I]-OX-A as tracer were added to the cell membranes, and then allowed to react at room temperature for 30 minutes. After completion of the reaction, the reaction solution as a whole was discarded, and the wells were then washed once with 200 ul of wash buffer (25 mM HEPES (pH 7.5), 1 mM CaCl2, 5 mM MgCl2, 0.5% BSA, 0.1% sodium azide, 0.05% Tween-20, and 525 mM sodium chloride). Finally, the radioactivity of each well was measured using a scintillation counter (TopCount, PerkinElmer). The obtained results are shown in terms of IC50 values (nM) in the following table.

[3] = biological target: T2, OX2; assay: Antagonism PLAP reporter assay, HEK-293 cells expressing human OX2; format: cell-based; parameters: expressed in transfected cells; host or cells: HEK-293 cell line, expression vector pBabeCLIH; settings: HEK-293, 1 nM human OX-A; IC50 converted to Ki by Cheng-Prusoff equation
Experimental: as §1, §2

[4] = biological target: T1, OX1; assay: Orexin-receptor binding ability, [125I]-OX-A, CHO cell membranes expressing OX1; parameters: expressed in transfected cells; host or cells: CHO cells (membrane preparation)
Experimental: as §3, §4
Cell membranes were prepared from recombinant CHO cells that expressed OX2 or OX1. The cell membranes were used in an amount of 5 μg protein/assay. […] Finally, the radioactivity of each well was measured using a scintillation counter (TopCount, PerkinElmer). The obtained results are shown in terms of IC50 values (nM) in the following table.

[5] = membranes of recombinant CHO cells, 0.2 nM [125I]-OX-A tracer, read-out: OX2 (IC50)
[6] = membranes of recombinant CHO cells, 0.2 nM [125I]-OX-A tracer, read-out: OX1 (IC50)

Compound: COc1ccc(OCC2(c3ccccc3)CC2C(=O)Nc2cccc(C)n2)cc1OC (stereo not shown) [Example 37, N-(6-methylpyridin-2-yl)-2-[(3,4-dimethoxyphenyl)oxymethyl]-2-phenylcyclopropanecarboxamide]
- Ki [1]: 593 nM
- IC50 [2, 5]: 18 nM
- Ki [3]: 14 nM
- IC50 [4, 6]: 403 nM

Compound: CCn1cc(OCC2(c3ccccc3)CC2C(=O)Nc2ccc(Cl)cn2)ccc1=O (stereo not shown) [Example 54, N-(5-chloropyridin-2-yl)-2-[(1-ethyl-6-oxo-1,6-dihydropyridin-3-yl)oxymethyl]-2-phenylcyclopropanecarboxamide]
- Ki [1]: 37.5 nM
- IC50 [2, 5]: 3 nM
- Ki [3]: 0.8 nM
- IC50 [4, 6]: 61 nM

Compound: COc1ccc(S(=O)(=O)CC2(c3ccccc3)CC2C(=O)Nc2ccc(Cl)cn2)cc1OC (stereo not shown) [Example 134, N-(5-chloropyridin-2-yl)-2-[(3,4-dimethoxyphenyl)sulfonylmethyl]-2-phenylcyclopropanecarboxamide]
- Ki [1]: > 467 nM
- IC50 [2]: 79 nM
- Ki [3]: 268 nM
- IC50 [4, 6]: 261 nM

Compound: COc1ccc(OCC2(c3ccccc3)CC2C(=O)Nc2cc(C)on2)cc1OC (stereo not shown) [Example 21, N-(5-methylisoxazol-3-yl)-2-[(3,4-dimethoxyphenyl)oxymethyl]-2-phenylcyclopropanecarboxamide]
- Ki [1]: > 816 nM
- IC50 [2, 5]: 28 nM
- Ki [3]: 77.1 nM
- IC50 [4, 6]: 505 nM

Compound: Cc1noc2cc(OCC3(c4ccccc4)CC3C(=O)Nc3ccc(C#N)cn3)ccc12 (stereo not shown) [Example 61]
- Ki [1]: 275 nM
- IC50 [2, 5]: 70 nM
- Ki [3]: 32.9 nM
- IC50 [4, 6]: 520 nM

Compound: COc1ccc(OCC2(c3ccccc3)CC2C(=O)Nc2ccccc2)cc1OC (stereo not shown) [Example 1]
- Ki [1]: 395 nM
- IC50 [2, 5]: 7 nM
- Ki [3]: 54 nM
- IC50 [4, 6]: 7 nM

Compound: CCn1nc(C)cc1OCC1(c2ccccc2)CC1C(=O)Nc1ccc(F)cn1 (stereo not shown) [Example 58]
- Ki [1]: > 467 nM
- IC50 [2, 5]: 45 nM
- Ki [3]: 20.9 nM
- IC50 [4, 6]: 467 nM

Compound: COc1ccc(OC[C@@]2(c3ccccc3)C[C@H]2C(=O)Nc2ccccn2)cc1OC [Example 41, (1R,2S)—N-(pyridin-2-yl)-2-[(3,4-dimethoxyphenyl)oxymethyl]-2-phenylcyclopropanecarboxamide]
- Ki [1]: 297 nM
- IC50 [2, 5]: 35 nM
- Ki [3]: 24.8 nM
- IC50 [4, 6]: 374 nM

Compound: CCn1nc(C)c(Cl)c1OCC1(c2ccccc2)CC1C(=O)Nc1ccc(Cl)cn1 (stereo not shown) [Example 75]
- Ki [1]: > 816 nM
- IC50 [2, 5]: 26 nM
- Ki [3]: 30.8 nM
- IC50 [4, 6]: 477 nM

Compound: COc1ccc(OCC2(c3ccccc3)CC2C(=O)Nc2cc(C)ccn2)cc1OC (stereo not shown) [Example 36, N-(4-methylpyridin-2-yl)-2-[(3,4-dimethoxyphenyl)oxymethyl]-2-phenylcyclopropanecarboxamide]
- Ki [1]: 699 nM
- IC50 [2, 5]: 22 nM
- Ki [3]: 43 nM
- IC50 [4, 6]: 283 nM

Compound: Cc1ccc(OCC2(c3ccccc3)CC2C(=O)Nc2ccc(Cl)cn2)c(C)n1 (stereo not shown) [Example 62]
- Ki [1]: 481 nM
- IC50 [2, 5]: 61 nM
- Ki [3]: 30.2 nM
- IC50 [4, 6]: 44 nM

Compound: CCn1nc(C)c(Cl)c1OCC1(c2ccccc2)CC1C(=O)Nc1ccc(F)cn1 (stereo not shown) [Example 74]
- Ki [1]: > 467 nM
- IC50 [2, 5]: 30 nM
- Ki [3]: 30.7 nM
- IC50 [4, 6]: 359 nM

Compound: COc1cccc(NC(=O)C2CC2(COc2ccc(OC)c(OC)c2)c2ccccc2)c1 (stereo not shown) [Example 34, N-(3-methoxyphenyl)-2-[(3,4-dimethoxyphenyl)oxymethyl]-2-phenylcyclopropanecarboxamide]
- Ki [1]: 24 nM
- IC50 [2, 5]: 6 nM
- Ki [3]: 4.5 nM
- IC50 [4, 6]: 20 nM

Compound: COc1ccc(OCC2(c3ccccc3)CC2C(=O)Nc2ccccc2-c2nnc[nH]2)cc1OC (stereo not shown) [Example 35, N-[2-(1H-1,2,4-triazol-3-yl)phenyl]-2-[(3,4-dimethoxyphenyl)oxymethyl]-2-phenylcyclopropanecarboxamide]
- Ki [1]: 1900 nM
- IC50 [2, 5]: 47 nM
- Ki [3]: 122 nM
- IC50 [4, 6]: 2040 nM

Compound: COc1ccc(OCC2(c3ccccc3)CC2C(=O)Nc2ccncc2C(F)(F)F)cc1OC (stereo not shown) [Example 25, N-(3-trifluoromethylpyridin-4-yl)-2-[(3,4-dimethoxyphenyl)oxymethyl]-2-phenylcyclopropanecarboxamide]
- Ki [1]: > 816 nM
- IC50 [2]: 27 nM
- Ki [3]: 391 nM
- IC50 [4, 6]: 369 nM

Compound: COc1ccc(OCC2(c3ccccc3)CC2C(=O)Nc2ncc(C)s2)cc1OC (stereo not shown) [Example 22, N-(5-methyl-1,3-thiazol-2-yl)-2-[(3,4-dimethoxyphenyl)oxymethyl]-2-phenylcyclopropanecarboxamide]
- Ki [1]: > 816 nM
- IC50 [2, 5]: 35 nM
- Ki [3]: > 614 nM
- IC50 [4, 6]: 296 nM

Compound: CCn1cc(OCC2(c3ccccc3)CC2C(=O)Nc2ccc(C#N)cn2)ccc1=O (stereo not shown) [Example 55]
- Ki [1]: > 467 nM
- IC50 [2, 5]: 33 nM
- Ki [3]: 43.6 nM
- IC50 [4, 6]: 675 nM

Compound: COc1ccc(OCC2(c3ccccc3)CC2C(=O)Nc2ccc(F)nc2)cc1OC (stereo not shown) [Example 26]
- Ki [1]: 70 nM
- IC50 [2]: 43 nM
- Ki [3]: 12.8 nM
- IC50 [4]: 27 nM

Compound: COc1ccc(OCC2(c3ccccc3)CC2C(=O)Nc2nc(C)ns2)cc1OC (stereo not shown) [Example 7, N-(3-methyl-1,2,4-thiadiazol-5-yl)-2-[(3,4-dimethoxyphenyl)oxymethyl]-2-phenylcyclopropanecarboxamide]
- Ki [1]: > 816 nM
- IC50 [2, 5]: 43 nM
- Ki [3]: 55.9 nM
- IC50 [4, 6]: 1900 nM
